Experiments:
[1] = design: species or system Sprague-Dawley rats; conditions: rat, in vivo
Procedure: The devices prepared in Example 2 were evaluated in ovariectomized Sprague-Dawley rats. The rats were ovariectomized 2 weeks prior to testing. On the test day the animals were anesthetized with ether and administered with either 10 ug of 17 B-estradiol in sesame oil [0.2 ml by subcutaneous (S.C.) or ingestion (I.G.) routes] or a soluble device containing an equal amount of estradiol placed buccally. Animals were kept anesthetized for approximately 10 minutes after estradiol administration. Trunk blood was collected at various times thereafter.

[2] = system: diestrus rat; assay: In-vivo delivery study of histrelin buccal device: induction of ovulation in the diestrus rat; conditions: for ED50 dose (inducing ovulation): buccal tablet
Procedure: The study was designed to measure the ability of the histrelin delivered by the soluble buccal devices of the invention to induce ovulation in the diestrus rat. Devices were prepared by punching 7 mm tablets from the tray containing the lyophilized foam. Each tablet theoretically contained 297 ug of histrelin. Whole, halved and quartered tablets were then placed in the buccal cavity of diestrus rats anesthetized with ether. After 10 minutes the device was absorbed. The following day the rats were sacrificed and the oviducts removed and examined for the presence of ova.

[3] = half buccal tablet, histrelin 150 ug
[4] = quarter buccal tablet, histrelin 75 ug
[5] = whole buccal tablet, histrelin 300 ug

SMILES | bioavailability of estradiol administered buccally [1] | time after which the device was absorbed ([2]; buccal cavity of anesthetized diestrus rats) [min] | ED50 dose (inducing ovulation) ([2]; per body weight) [mg/kg] | ED50 dose (inducing ovulation) ([2]; per rat) | inducing ovulation (result in words) ([2]; buccal tablets) | # of Rats Ovulating/Total # of Rats [2, 3] | Ova/Rat [2, 3] | # of Rats Ovulating/Total # of Rats [2, 4] | Ova/Rat [2, 4] | # of Rats Ovulating/Total # of Rats [2, 5] | Ova/Rat [2, 5]
C[C@]12CC[C@@H]3c4ccc(O)cc4CC[C@H]3[C@@H]1CC[C@@H]2O [Estradiol, 17 B-estradiol] | greater than oral administration but less than administered by injection |  |  |  |  |  |  |  |  |  | 
CCNC(=O)[C@@H]1CCCN1C(=O)[C@H](CCCNC(=N)N)NC(=O)[C@H](CC(C)C)NC(=O)[C@@H](Cc1cn(Cc2ccccc2)cn1)NC(=O)[C@H](Cc1ccc(O)cc1)NC(=O)[C@H](CO)NC(=O)[C@H](Cc1c[nH]c2ccccc12)NC(=O)[C@H](Cc1cnc[nH]1)NC(=O)[C@@H]1CCC(=O)N1 [Histrelin] |  | 10 | ~0.3 | approximately 75 ug/rat | effective in inducing ovulation in a dose-dependent manner | 4/5 | 8 | 4/6 | 6 | 6/6 | 13

From patent US5891458A, “Bioerodible device for administering active ingredients” (priority 1997, dated 1999)
